{"source": "patent US5180729A", "about": "“Use of sigma receptor antagonists for treatment of cocaine abuse” (Du Pont Merck Pharmaceutical Company, priority 1991, dated 1993)", "system": "cocaine-induced motor activity", "assay": "Cocaine-induced behavior and baseline motor activity, same animal system (haloperidol)", "assay_type": "in vivo", "conditions": "for Effect on baseline motor activity in the absence of cocaine (in words): same animal system as Ex. No. 504, cocaine-free animals", "description": "Cocaine was administered to mice or rats and its effect in stimulating motor activity was quantified. The cocaine-stimulated motor activity was used to evaluate the effects of the sigma receptor antagonist in reducing this enhanced motor stimulation, i.e., counteracting the pharmacological effect of cocaine in the animal.", "data": [{"smiles": "O=C(CCCN1CCC(O)(c2ccc(Cl)cc2)CC1)c1ccc(F)cc1", "note": "[haloperidol]", "values": [{"measurement": "Effect on cocaine-induced behavior (in words)", "setting": "same animal system as Ex. No. 504", "result": "did not specifically inhibit cocaine-induced behavior"}, {"measurement": "Effect on baseline motor activity in the absence of cocaine (in words)", "result": "significantly depressed baseline motor activity"}, {"measurement": "Effect on baseline motor activity in the absence of cocaine (in words)", "setting": "listed as Haloperidol", "result": "adverse non-selective attenuation of normal motor activity"}]}]}
